This note sets out measurements from patent US12180207B2 (ARRAY BIOPHARMA INC., priority 2018, dated 2024).

As a reminder, the IC50 is the point on the concentration scale where inhibition reaches its midpoint.

The target in test [1] is FGFR1 (SEQ ID NO: 1, amino acids 458-765) (Homo sapiens (Human), UniProt P11362). Kind of test: LC/MS FGFR1 kobs assay (covalent protein modification). The class given is binding. The following applies: 500 nM FGFR1, 3 μM compound. In outline: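 Covalent labeling of FGFR1 kinase domain (aa 458-765) tracked over time by intact-protein LC/MS after formic acid quench. kobs derived by fitting DMSO-normalized percent unmodified FGFR1 to an exponential decay model.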

In test [2] the target is phosphorylated FGFR3 (SEQ ID NO: 5, amino acids 449 to 759) (Homo sapiens (Human), UniProt P22607). Kind of test: FGFR enzyme binding assay (HTRF tracer displacement), FGFR3. To be noted: 5 nM phosphorylated FGFR3, average of multiple determinations if made. The gist of the method:
(§1)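 Kinase and tracer were incubated with compound for 60 minutes at 22° C. Tracer displacement was then measured by HTRF, and results were expressed as POC with 1 μM control inhibitor defining full displacement.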
In general terms: TR-FRET usually uses a lanthanide donor and a delayed reading to cut background.

Test [3] deals with recombinant human FGFR3 (amino acids R397-T806) (Homo sapiens (Human), UniProt P22607). Nature of the test: FGFR3 enzyme activity assay (LanthaScreen TR-FRET). The class given is biochemical. The following applies: 25 μM ATP, 10 min incubation at 22° C., average of multiple determinations if made, read-out: FGFR3 Enz FRET IC50. In outline:
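GST-HIS6-tagged human FGFR3 (R397-T806) was reacted with 100 nM Alexa Fluor 647-Poly-GT substrate and 25 μM ATP plus compound in HEPES/MgCl2/Triton buffer, pH 7.5, 2% DMSO, for 10 min at 22 °C.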

The target in test [4] is dephosphorylated FGFR1 (SEQ ID NO: 1, amino acids 458 to 765) (Homo sapiens (Human), UniProt P11362). Nature of the test: FGFR enzyme binding assay (HTRF tracer displacement), FGFR1. The following applies: 5 nM dephosphorylated FGFR1, average of multiple determinations if made. In outline: as §1
In test [5] the target is recombinant human FGFR1 catalytic domain (amino acids 308-731) (Homo sapiens (Human), UniProt P11362). Nature of the test: FGFR1 enzyme activity assay (LanthaScreen TR-FRET). The class given is biochemical. The following applies: 20 min incubation at 22° C., average of multiple determinations if made, read-out: FGFR1 Enz FRET IC50. The gist of the method: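 His-tagged FGFR1 kinase domain with 100 nM Alexa Fluor 647-poly-GT peptide and ATP in pH 7.5 HEPES/MgCl2 buffer with 2% DMSO, 20 min at 22 °C. Quenched with EDTA plus 2 nM Eu-PY20 antibody and read after 60 min. IC50 comes from a 4-parameter fit of percent of control.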
Chain of recombinant human FGFR1 catalytic domain (amino acids 308-731) (P11362 other isoform, or with tags, fused parts or gaps): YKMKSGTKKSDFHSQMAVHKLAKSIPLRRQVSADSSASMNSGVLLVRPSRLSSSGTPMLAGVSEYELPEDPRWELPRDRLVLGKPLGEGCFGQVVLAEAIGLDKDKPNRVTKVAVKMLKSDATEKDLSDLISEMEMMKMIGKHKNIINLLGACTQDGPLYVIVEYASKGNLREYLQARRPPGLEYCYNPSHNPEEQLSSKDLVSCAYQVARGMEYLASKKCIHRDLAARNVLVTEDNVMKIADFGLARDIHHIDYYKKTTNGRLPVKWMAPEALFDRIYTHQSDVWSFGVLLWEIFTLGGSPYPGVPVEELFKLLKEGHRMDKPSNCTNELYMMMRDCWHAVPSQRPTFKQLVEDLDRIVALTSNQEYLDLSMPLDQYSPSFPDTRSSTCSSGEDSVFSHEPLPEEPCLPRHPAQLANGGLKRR

Chain of recombinant human FGFR3 (amino acids R397-T806) (P22607 397-806): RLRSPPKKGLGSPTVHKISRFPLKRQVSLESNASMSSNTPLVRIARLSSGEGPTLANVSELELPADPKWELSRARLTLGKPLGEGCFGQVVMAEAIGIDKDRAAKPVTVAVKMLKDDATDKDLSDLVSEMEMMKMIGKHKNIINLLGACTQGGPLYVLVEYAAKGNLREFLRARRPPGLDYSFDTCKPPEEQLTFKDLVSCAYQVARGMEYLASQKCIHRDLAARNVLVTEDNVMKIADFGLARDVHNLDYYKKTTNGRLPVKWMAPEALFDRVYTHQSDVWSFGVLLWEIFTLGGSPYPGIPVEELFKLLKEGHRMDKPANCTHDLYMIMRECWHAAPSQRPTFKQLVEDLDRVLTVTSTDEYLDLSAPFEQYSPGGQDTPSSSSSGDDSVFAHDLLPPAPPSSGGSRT
Chain of phosphorylated FGFR3 (SEQ ID NO: 5, amino acids 449 to 759) (P22607 449-759): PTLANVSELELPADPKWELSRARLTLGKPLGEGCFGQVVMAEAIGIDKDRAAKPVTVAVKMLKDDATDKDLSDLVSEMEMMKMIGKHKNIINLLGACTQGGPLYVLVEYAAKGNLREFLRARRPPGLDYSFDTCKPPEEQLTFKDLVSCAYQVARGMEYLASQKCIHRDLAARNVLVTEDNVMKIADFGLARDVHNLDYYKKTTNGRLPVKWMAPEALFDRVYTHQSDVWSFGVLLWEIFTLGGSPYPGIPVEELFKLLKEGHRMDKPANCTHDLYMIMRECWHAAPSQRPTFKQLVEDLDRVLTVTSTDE
Chain of dephosphorylated FGFR1 (SEQ ID NO: 1, amino acids 458 to 765) (P11362 458-765): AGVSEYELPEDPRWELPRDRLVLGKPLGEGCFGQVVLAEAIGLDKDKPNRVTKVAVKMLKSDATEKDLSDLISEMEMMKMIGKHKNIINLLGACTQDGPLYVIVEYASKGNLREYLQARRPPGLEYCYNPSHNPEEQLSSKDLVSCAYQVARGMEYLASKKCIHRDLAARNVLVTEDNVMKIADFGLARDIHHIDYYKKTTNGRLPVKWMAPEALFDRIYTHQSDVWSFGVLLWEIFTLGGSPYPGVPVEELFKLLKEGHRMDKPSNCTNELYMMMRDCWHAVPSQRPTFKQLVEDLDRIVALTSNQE
Chain of FGFR1 (SEQ ID NO: 1, amino acids 458-765) (P11362 458-765): as above

For `C=CC(=O)N1C2CC1CN(C(=O)N1CCC(n3cc(-c4cc(OC)c5c(C#N)cnn5c4)cn3)CC1)C2` [Example 1, 6-(1-(1-(6-acryloyl-3,6-diazabicyclo[3.1.1]heptane-3-carbonyl)piperidin-4-yl)-1H-pyrazol-4-yl)-4-methoxypyrazolo[1,5-a]pyridine-3-carbonitrile], in test [1], the “FGFR1 Enz kobs” value came out at 0.00122 min⁻¹. Also, the IC50 in test [2] came to 4 nM; in test [3], 5 nM; in test [4] it was 50 nM; in test [5], 5 nM.

`C=CC(=O)N1C2COCC1CN(C(=O)N1CCC(n3cc(-c4cc(OC)c5c(C#N)cnn5c4)cn3)CC1)C2` [Example 3, 6-(1-(1-(9-acryloyl-3-oxa-7,9-diazabicyclo[3.3.1]nonane-7-carbonyl)piperidin-4-yl)-1H-pyrazol-4-yl)-4-methoxypyrazolo[1,5-a]pyridine-3-carbonitrile]: the “FGFR1 Enz kobs” value in test [1] is 0.00172 min⁻¹. Further, the IC50 in test [2] turned out to be 3 nM; in test [3] it was 2 nM; in test [4], 44 nM; in test [5], 8 nM.

Consider `C=CC(=O)N1CCC(C#N)(C(=O)N2CCC(n3cc(-c4cc(OC)c5c(C#N)cnn5c4)cn3)CC2)CC1` [Example 14, 6-(1-(1-(1-acryloyl-4-cyanopiperidine-4-carbonyl)piperidin-4-yl)-1H-pyrazol-4-yl)-4-methoxypyrazolo[1,5-a]pyridine-3-carbonitrile], for which the “FGFR1 Enz kobs” value in test [1] worked out at 0.00069 min⁻¹. Further, the IC50 in test [2] was determined as 7 nM; in test [3], 3 nM; in test [4], 84 nM; in test [5], 8 nM.

Consider `C=CC(=O)N1CCC(C(=O)N2CCC(n3cc(-c4cc(OC)c5c(C#N)cnn5c4)cn3)CC2)C(F)(F)C1` (stereo not shown) [Example 15, 6-(1-(1-(1-acryloyl-3,3-difluoropiperidine-4-carbonyl)piperidin-4-yl)-1H-pyrazol-4-yl)-4-methoxypyrazolo[1,5-a]pyridine-3-carbonitrile], for which the “FGFR1 Enz kobs” value in test [1] was determined as 0.00168 min⁻¹. Also, the IC50 in test [2] is 2 nM; in test [3], 2 nM; in test [4], 32 nM; in test [5], 7 nM.

As for `C=CC(=O)N1CC2(CCC(C(=O)N3CCC(n4cc(-c5cc(OC)c6c(C#N)cnn6c5)cn4)CC3)CC2)C1` [Example 21, 6-(1-(1-(2-acryloyl-2-azaspiro[3.5]nonane-7-carbonyl)piperidin-4-yl)-1H-pyrazol-4-yl)-4-methoxypyrazolo[1,5-a]pyridine-3-carbonitrile], the “FGFR1 Enz kobs” value in test [1] turned out to be 0.00085 min⁻¹. Also, the IC50 was 5 nM in test [2], 3 nM in test [3], 57 nM in test [4] and 10 nM in test [5].

For `C=CC(=O)Nc1cccc(C(=O)N2CCC(n3cc(-c4cc(OC)c5c(C#N)cnn5c4)cn3)CC2)c1` [Example 22, N-(3-(4-(4-(3-cyano-4-methoxypyrazolo[1,5-a]pyridin-6-yl)-1H-pyrazol-1-yl)piperidine-1-carbonyl)phenyl)acrylamide], the “FGFR1 Enz kobs” value in test [1] stood at 0.00187 min⁻¹. In addition, the IC50 in test [2] came out at 8 nM; in test [3], 4 nM; in test [4], 112 nM; in test [5], 21 nM.

For the molecule `C=CC(=O)Nc1ccc(C(=O)N2CCC[C@@H](n3cc(-c4cc(OC)c5c(C#N)cnn5c4)cn3)C2)cc1` [Example 23, (R)-N-(4-(3-(4-(3-cyano-4-methoxypyrazolo[1,5-a]pyridin-6-yl)-1H-pyrazol-1-yl)piperidine-1-carbonyl)phenyl)acrylamide], the “FGFR1 Enz kobs” value in test [1] came to 0.00247 min⁻¹. Further, the IC50 in test [2] turned out to be 54 nM; in test [3], 16 nM; in test [4], 431 nM; in test [5], 36 nM.

On to `C=CC(=O)Nc1cccc(C(=O)N2CCC[C@@H](n3cc(-c4cc(OC)c5c(C#N)cnn5c4)cn3)C2)c1` [Example 24, (R)-N-(3-(3-(4-(3-cyano-4-methoxypyrazolo[1,5-a]pyridin-6-yl)-1H-pyrazol-1-yl)piperidine-1-carbonyl)phenyl)acrylamide], for which the “FGFR1 Enz kobs” value in test [1] was determined as 0.0025 min⁻¹. The IC50 worked out at 69 nM in test [2], 31 nM in test [3], 310 nM in test [4] and 63 nM in test [5].

As to `C=CC(=O)Nc1ccccc1C(=O)N1CCC[C@@H](n2cc(-c3cc(OC)c4c(C#N)cnn4c3)cn2)C1` [Example 25, (R)-N-(2-(3-(4-(3-cyano-4-methoxypyrazolo[1,5-a]pyridin-6-yl)-1H-pyrazol-1-yl)piperidine-1-carbonyl)phenyl)acrylamide], in test [1], the “FGFR1 Enz kobs” value worked out at 0.00103 min⁻¹. Besides, the IC50 in test [2] was determined as 52 nM; in test [3], 12 nM; in test [4] it was 350 nM; in test [5] it was 53 nM.

As for `C=CC(=O)N1CC[C@H](C(=O)N2CCC(n3cc(-c4cc(OC)c5c(C#N)cnn5c4)cn3)CC2)C1` [Example 28, (S)-6-(1-(1-(1-acryloylpyrrolidine-3-carbonyl)piperidin-4-yl)-1H-pyrazol-4-yl)-4-methoxypyrazolo[1,5-a]pyridine-3-carbonitrile], the “FGFR1 Enz kobs” value in test [1] is 0.00075 min⁻¹. The IC50 in test [2] was 17 nM; in test [3], 9 nM; in test [4], 105 nM; in test [5] it was 18 nM.

Turning to `C=CC(=O)N1CC[C@@H](C(=O)N2CCC(n3cc(-c4cc(OC)c5c(C#N)cnn5c4)cn3)CC2)C1` [Example 29, (R)-6-(1-(1-(1-acryloylpyrrolidine-3-carbonyl)piperidin-4-yl)-1H-pyrazol-4-yl)-4-methoxypyrazolo[1,5-a]pyridine-3-carbonitrile], the “FGFR1 Enz kobs” value in test [1] was determined as 0.00075 min⁻¹. For the same molecule, the IC50 in test [2] was determined as 43 nM; in test [3], 11 nM; in test [4], 251 nM; in test [5], 24 nM.

Take `C=CC(=O)N1CCC(F)(C(=O)N2CCC(n3cc(-c4cc(OC)c5c(C#N)cnn5c4)cn3)CC2)C1` (stereo not shown) [Example 30, 6-(1-(1-(1-acryloyl-3-fluoropyrrolidine-3-carbonyl)piperidin-4-yl)-1H-pyrazol-4-yl)-4-methoxypyrazolo[1,5-a]pyridine-3-carbonitrile]: the “FGFR1 Enz kobs” value in test [1] is 0.00104 min⁻¹. Moreover, the IC50 worked out at 5 nM in test [2], 2 nM in test [3], 51 nM in test [4] and 9 nM in test [5].

For the molecule `C=CC(=O)Nc1ccc(C(=O)N2CCC(n3cc(-c4cc(OC)c5c(C#N)cnn5c4)cn3)CC2)cc1` [Example 177, N-(4-(4-(4-(3-cyano-4-methoxypyrazolo[1,5-a]pyridin-6-yl)-1H-pyrazol-1-yl)piperidine-1-carbonyl)phenyl)acrylamide], the “FGFR1 Enz kobs” value in test [1] amounted to 0.00324 min⁻¹. In addition, the IC50 was found to be 8 nM in test [3] and 11 nM in test [5].

`C=CS(=O)(=O)Nc1cccc(C(=O)N2CCC(n3cc(-c4cc(OC)c5c(C#N)cnn5c4)cn3)CC2)c1` [Example 188, N-(3-(4-(4-(3-cyano-4-methoxypyrazolo[1,5-a]pyridin-6-yl)-1H-pyrazol-1-yl)piperidine-1-carbonyl)phenyl)eth-enesulfonamide]: the IC50 was determined as 1 nM in test [2], 3 nM in test [3], 14 nM in test [4] and 11 nM in test [5].
